{
  "source": "patent US20260272920A1",
  "about": "“NLRP3 MODULATORS” (Zomagen Biosciences Ltd, priority 2023, published 2026)",
  "data": [
    {"system": "NLRP3", "test": "IL-1β Assay in THP1 Cells (LPS priming + nigericin, NLRP3 activation)", "type": "cell-based", "conditions": "Homo sapiens, THP-1; THP1 cells primed with 100 ng/mL LPS, 10 μM nigericin 3 hours; IL-1β released in supernatant; read-out: IL-1b (IC50)", "procedure": "Example 10: IL-1β Assay in THP1 Cells\nTHP1 cells were primed with 100 ng/mL LPS in test medium (RPMI1640+GlutaMAX+25 mM HEPES+10% HI FBS+1% Pen/Strep) overnight at 37° C. and 5% CO2. Compounds were serially diluted in test medium and added to 200 000 cells/well for 1 hour at 37° C. and 5% CO2. After 1 hour, nigericin was added at 10 μM final concentration and incubated in at 37° C. and 5% CO2 for 3 hours to induce NLRP3 activation. IL-1β released from THP1 was detected in the cell supernatant by the ELLA (Simple Plex, Bio-Techne) Human IL-1β Immunoassays. The average of the positive control (LPS+nigericin) and the negative control (LPS alone) was calculated. The % inhibition of each test well was calculated by the following formula: % inhibition per well=[(average of positive control−single well signal value)/(average of positive control−average of negative control)]*100%. The compound inhibition curve was fitted by using a four-parameter logistic dose response equation: compound concentration was converted into logarithm base 10, and its concentration and % inhibition is imported into Graphpad prism software.", "units": {"IC50": "nM"}, "values": [
      {"smiles": "CCN1CCCC(C(O)c2cc(C)c(-c3ccc4c(F)c[nH]c4c3)nn2)C1", "note": "(stereo not drawn) [Compound 10, (1-ethylpiperidin-3-yl)(6-(3-fluoro-1H-indol-6-yl)-5-methylpyridazin-3-yl)methanol]", "IC50": "< 500"},
      {"smiles": "CCN1CCCC(C(O)c2cc(C)c(-c3ccc4cc[nH]c4c3)nn2)C1", "note": "(stereo not drawn) [Compound 12, (6-(1H-indol-6-yl)-5-methylpyridazin-3-yl) (1-ethylpiperidin-3-yl) methanol]", "IC50": "< 500"},
      {"smiles": "Cc1cc(C(O)C2CCCN(C)C2)nnc1-c1ccc2occc2c1", "note": "(stereo not drawn) [Compound 16, (6-(benzofuran-5-yl)-5-methylpyridazin-3-yl)(1-methylpiperidin-3-yl)methanol]", "IC50": "< 500"},
      {"smiles": "CCN1CCCC(C(O)c2cc(C)c(-c3ccc4occc4c3)nn2)C1", "note": "(stereo not drawn) [Compound 17, (6-(benzofuran-5-yl)-5-methylpyridazin-3-yl)(1-ethylpiperidin-3-yl)methanol]", "IC50": "< 500"},
      {"smiles": "Cc1cc(C(O)C2CCCN(C)C2)nnc1-c1ccc(C(F)(F)F)cc1CC(F)(F)F", "note": "(stereo not drawn) [Compound 21, (5-methyl-6-(2-(2,2,2-trifluoroethyl)-4-(trifluoromethyl)phenyl)pyridazin-3-yl)(1-methylpiperidin-3-yl)methanol]", "IC50": "500 to 3000"},
      {"smiles": "Cc1cc([C@H](O)[C@@H]2CCCN(C)C2)nnc1-c1ccc(C(F)(F)F)cc1", "note": "[Compound 28, (R)-(5-methyl-6-(4-(trifluoromethyl)phenyl)pyridazin-3-yl)((R)-1-methylpiperidin-3-yl)methanol]", "IC50": "500 to 3000"},
      {"smiles": "CCN1CCC[C@@H]([C@@H](O)c2cc(C)c(-c3ccc(C(F)(F)F)cc3)nn2)C1", "note": "[Compound 29, (R)-((R)-1-ethylpiperidin-3-yl)(5-methyl-6-(4-(trifluoromethyl)phenyl)pyridazin-3-yl)methanol]", "IC50": "< 500"},
      {"smiles": "Cc1cc([C@H](O)[C@@H]2CCCN(C)C2)nnc1-c1ccc(C(F)(F)F)cc1OC(F)F", "note": "[Compound 31, (R)-(6-(2-(difluoromethoxy)-4-(trifluoromethyl)phenyl)-5-methylpyridazin-3-yl)((R)-1-methylpiperidin-3-yl)methanol]", "IC50": "< 500"},
      {"smiles": "CCN1CCC[C@@H]([C@@H](O)c2cc(C)c(-c3ccc(C(F)(F)F)cc3OC(F)F)nn2)C1", "note": "[Compound 33, (R)-(6-(2-(difluoromethoxy)-4-(trifluoromethyl)phenyl)-5-methylpyridazin-3-yl)((R)-1-ethylpiperidin-3-yl)methanol]", "IC50": "< 500"}
    ]}
  ]
}
